Laboratory results from patent US6346529B1, “Antiviral therapy using thiazine dyes” (Oklahoma Medical Research Foundation, priority 1988, dated 2002).
Read-outs that look alike come from different tables or passages of the source.

Key:
[1] = PBM cell proliferation (cytotoxicity) assay; format: cell-based; settings: human
Experimental: (§1) PBM and CEM Cells Proliferation Assay: The drugs were evaluated for their potential toxic effects on uninfected PHA-stimulated human PBM cells and also in CEM cells. The cells were cultured with and without drug for 6 days at which time aliquots were counted for cell viability as described above. Median-Effect Method: EC50 and IC50 values were obtained by analysis of the data using the median-effect equation (Chou, T., et al., “Quantitative Analysis of Dose-Effect Relationships: The Combined Effects of Multiple Drugs or Enzyme Inhibitors,” Adv. Enz. Regul. 22, 27-55 (1984).

[2] = CEM cell proliferation (cytotoxicity) assay; format: cell-based; settings: human
Experimental: as §1

[3] = cited from earlier work
[4] = test system: nucleosides of adenine, cytosine, thymine, and guanine; assay: Methylene blue plus light treatment of nucleosides (HPLC); format: biochemical; settings: methylene blue plus light 15 min
Experimental: The nucleosides of adenine, cytosine, thymine, and guanine (approximately 200 nmoles each) were also subjected to methylene blue (20 μl into 2.0 mls final total volume) plus light treatment (100 watt incandescent light 11 cm over solution for 15 min).

HIV (LAV-I) = assay: HIV in human PBMC, P24 levels by EIA; format: cell-based; settings: for inhibition at 0.001 µM / inhibition at 0.01 µM / inhibition at 1 µM / inhibition at 10 µM / inhibition at 0.1 µM / EC50: Human immunodeficiency virus 1, PBMC
Experimental: While the previous example measured RT activity, the present example utilizes a direct quantitation of a viral protein (P24) as an indicator of antiviral effectiveness.
Peripheral blood mononuclear (PBM) cells were infected with HIV and treated with methylene blue as described above. The EC50 levels were calculated from enzyme immuno-assay (EIA) measurements of viral coat protein P24. The P24-specific EIA kit was purchased from Abbott Labs.

[5] = Ziv and Heavner 1984; cited from earlier work
[6] = target: T1, HIV-1 reverse transcriptase (RT) (Human immunodeficiency virus type 1 group M subtype B, UniProt P03367); assay: HIV-1 reverse transcriptase enzyme assay; format: biochemical
T1 construct: HIV reverse transcriptase (RT); endogenous in cells; host or cells: HIV-1-infected PHA-stimulated human PBM cells
From the text: (§2) Enzyme Assays: The preparation of the enzyme and the assay conditions used, were recently described by Schinazi, et al., Antimicrob. Agents Chemother. 33, 115-117 (1989). HIV-1 RT and cellular DNA polymerase alpha were isolated from infected and uninfected PHA-stimulated human PBM cells according to traditional methods (Eriksson, B., et al., Antimicrob. Agents Chemother. 31, 600-604, (1987); Furman, et al., Proc. Natl. Acad. Sci. USA 83, 8333-8337, (1986); Abrell, et al., J. Virol. 12, 431-439, (1973).
(§3) Assays. Reaction mixtures (100 μl) contained:
(§4) The reactions were started by the addition of 10 μl of purified enzyme, incubated at 37° C. for the indicated periods of time and processed as described in Eriksson, et al., Antimicrob. Agents Chemother. 31, 600-604 (1987).
(§5) Median-Effect Method: EC50 and IC50 values were obtained by analysis of the data using the median-effect equation (Chou, T., et al., “Quantitative Analysis of Dose-Effect Relationships: The Combined Effects of Multiple Drugs or Enzyme Inhibitors,” Adv. Enz. Regul. 22, 27-55 (1984).
(§6) The effect of methylene blue on two DNA polymerizing enzymes, HIV reverse transcriptase (RT) and calf thymus DNA polymerase alpha (CT α pol), was also studied.

RNA virus R17 [7] = assay: Inactivation of RNA virus R17, plaque titer on E. coli lawn; format: cell-based, R17 phage; settings: for PFU: MB 0.05 uM
Experimental: Add 20 μl φ (R17 phage) stock to 2.0 ml dilution buffer and dispense 0.3 ml into each of tubes A-F. Next add methylene blue to give concentrations shown in Table 2 below. Pipet 270 μl of samples to be light treated into the #1 wells of a 96 well microtiter plate, corresponding to its letter label A-H. The samples in the microtiter plate were exposed to light through water (¼ cm) deep in a petri dish for 5 minutes. 270 μl of each sample not to be light treated was then added to wells in the plate.
R17 virus samples were also tested to determine the time of exposure of light required to inactivate the virus. […] The length of exposure was varied as follows:
Add 0.3 ml to well H2, treat with light 0-5 min. Add 0.3 ml to well G2, treat with light 5 min-7.5 min. Add 0.3 ml to well F2, treat with light 7.5 min-9.0 min. Add 0.3 ml to well E2, treat with light 9.0 min-9.5 min. Add 0.3 ml to well D2, treat with light 9.5 min-9.9 min. Add 0.3 ml to well C2, treat with light 9.9 min-10.0 min. Add 0.3 ml to well B, no light. Add 0.3 ml to well A, no light.

[8] = sheep, cited from earlier work
[9] = target: T2, calf thymus DNA polymerase alpha (CT α pol) (Bos taurus, UniProt A0AAA9TD94); assay: DNA polymerase alpha enzyme assay; format: biochemical
T2 construct: calf thymus DNA polymerase alpha (CT α pol); from tissue; host or cells: calf thymus
From the text: as §2, §3, §4, §5, §6

RNA virus R17 [10] = assay: Inactivation of RNA virus R17, plaque titer on E. coli lawn; format: cell-based, R17 phage

T2 sequence (A0AAA9TD94 entry or part of it): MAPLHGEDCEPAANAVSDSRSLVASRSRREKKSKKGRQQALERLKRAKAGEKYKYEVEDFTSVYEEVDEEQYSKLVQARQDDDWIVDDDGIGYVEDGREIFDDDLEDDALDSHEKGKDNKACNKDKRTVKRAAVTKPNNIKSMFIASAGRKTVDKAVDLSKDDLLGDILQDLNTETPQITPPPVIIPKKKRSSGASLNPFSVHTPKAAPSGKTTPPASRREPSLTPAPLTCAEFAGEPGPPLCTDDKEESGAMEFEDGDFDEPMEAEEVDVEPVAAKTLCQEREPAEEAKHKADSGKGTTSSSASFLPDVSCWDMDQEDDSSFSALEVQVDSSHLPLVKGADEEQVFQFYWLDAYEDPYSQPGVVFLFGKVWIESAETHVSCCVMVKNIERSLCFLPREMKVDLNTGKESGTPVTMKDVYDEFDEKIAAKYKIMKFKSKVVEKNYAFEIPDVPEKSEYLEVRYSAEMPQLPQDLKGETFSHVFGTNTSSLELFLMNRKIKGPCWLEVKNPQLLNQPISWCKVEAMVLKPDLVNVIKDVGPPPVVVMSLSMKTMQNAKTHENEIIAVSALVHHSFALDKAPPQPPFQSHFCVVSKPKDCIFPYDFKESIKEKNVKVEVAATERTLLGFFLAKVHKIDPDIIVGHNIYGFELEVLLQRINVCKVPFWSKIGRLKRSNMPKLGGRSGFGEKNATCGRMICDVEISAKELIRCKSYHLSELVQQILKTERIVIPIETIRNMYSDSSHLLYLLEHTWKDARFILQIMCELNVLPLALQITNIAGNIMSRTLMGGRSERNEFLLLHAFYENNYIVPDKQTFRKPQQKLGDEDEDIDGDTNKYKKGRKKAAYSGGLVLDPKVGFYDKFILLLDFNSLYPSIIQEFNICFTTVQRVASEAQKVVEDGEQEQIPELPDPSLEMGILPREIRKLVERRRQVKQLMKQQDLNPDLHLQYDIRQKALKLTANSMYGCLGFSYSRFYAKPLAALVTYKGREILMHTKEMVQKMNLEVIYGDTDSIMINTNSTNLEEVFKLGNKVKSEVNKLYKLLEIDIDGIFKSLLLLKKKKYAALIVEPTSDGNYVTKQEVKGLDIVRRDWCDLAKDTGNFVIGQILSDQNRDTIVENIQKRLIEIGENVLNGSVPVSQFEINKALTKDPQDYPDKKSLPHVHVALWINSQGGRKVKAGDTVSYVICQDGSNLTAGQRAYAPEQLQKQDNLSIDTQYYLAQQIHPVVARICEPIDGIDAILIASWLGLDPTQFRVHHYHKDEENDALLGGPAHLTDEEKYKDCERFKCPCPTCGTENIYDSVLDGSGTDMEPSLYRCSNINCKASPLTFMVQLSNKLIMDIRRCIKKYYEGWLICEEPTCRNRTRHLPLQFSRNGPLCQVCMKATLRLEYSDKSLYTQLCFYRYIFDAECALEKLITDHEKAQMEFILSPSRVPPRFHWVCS

Nc1nc2c(ncn2COCCO)c(=O)[nH]1 [ACV, Acyclovir]
IC50 at 6 days [1]: > 100 µM | IC50 at 6 days [2]: > 100 µM

CN(C)c1ccc2nc3ccc(N(C)C)cc3[s+]c2c1.[Cl-] [MB, 3,7-Bis(dimethylamino)phenothiazin-5-ium chloride]
absorption from the GI tract ([3]; American Hospital Formulary Service): absorbed well from the GI tract | excreted in urine and via the bile ([3]; mostly as leukomethylene blue): about 75% | formation of hydroxylated derivative from nucleosides [4]: Only deoxyguanosine reacted to form the hydroxylated derivative | ng P24/ml (HIV (LAV-I); Dark, 0.001 μM): 356.0 ng P24/ml | ng P24/ml (HIV (LAV-I); Dark, 0.01 μM): 270.2 ng P24/ml | ng P24/ml (HIV (LAV-I); Dark, 1 μM): 84.1 ng P24/ml | ng P24/ml (HIV (LAV-I); Dark, 10 μM): 5.4 ng P24/ml | ng P24/ml (HIV (LAV-I); Dark, .1 μM): 287.2 ng P24/ml | inhibition at 0.001 µM (HIV (LAV-I); read-out: % Inhibition (corrected), Dark, 0.001 μM): 0.8% | inhibition at 0.01 µM (HIV (LAV-I); read-out: % Inhibition (corrected), Dark, 0.01 μM): 24.7% | inhibition at 1 µM (HIV (LAV-I); read-out: % Inhibition (corrected), Dark, 1 μM): 76.6% | inhibition at 10 µM (HIV (LAV-I); read-out: % Inhibition (corrected), Dark, 10 μM): 98.5% | inhibition at 0.1 µM (HIV (LAV-I); read-out: % Inhibition (corrected), Dark, .1 μM): 20% | inhibition at 0.001 µM (HIV (LAV-I); read-out: % Inhibition (corrected), Light, 0.001 μM): -3.2% | inhibition at 0.01 µM (HIV (LAV-I); read-out: % Inhibition (corrected), Light, 0.01 μM): -3.2% | inhibition at 1 µM (HIV (LAV-I); read-out: % Inhibition (corrected), Light, 1 μM): 98.6% | inhibition at 10 µM (HIV (LAV-I); read-out: % Inhibition (corrected), Light, 10 μM): 99.4% | inhibition at 0.1 µM (HIV (LAV-I); read-out: % Inhibition (corrected), Light, .1 μM): 15.8% | EC50 (HIV (LAV-I); read-out: EC50 (P24), Dark): 0.33 µM | EC50 (HIV (LAV-I); read-out: EC50 (P24), Light): 0.024 µM | ng P24/ml (HIV (LAV-I); Light, 0.001 μM): 370.5 ng P24/ml | ng P24/ml (HIV (LAV-I); Light, 0.01 μM): 370.5 ng P24/ml | ng P24/ml (HIV (LAV-I); Light, 1 μM): 5.1 ng P24/ml | ng P24/ml (HIV (LAV-I); Light, 10 μM): 2.2 ng P24/ml | ng P24/ml (HIV (LAV-I); Light, .1 μM): 302.2 ng P24/ml | crossing of the blood-milk barrier [5]: crosses the blood-milk barrier easily | IC50 ([6]; Dark): 10 µM | IC50 ([6]; Light): 9.2 µM | light exposure inactivating infectivity 50% (RNA virus R17 [7]; 0.05 μM methylene blue): 45 s | pfu/ml (RNA virus R17 [7]; MB 0.02 uM, light 5′ yes): 5.04 × 10^10 pfu/ml | pfu/ml (RNA virus R17 [7]; MB 0.04 uM, light 5′ yes): 1.11 × 10^10 pfu/ml | t½ of R17 inactivation (RNA virus R17 [7]; MB 0.05 uM and light): 48 to 60 s | PFU (RNA virus R17 [7]; light 0.1 min): 3.3 × 10^9/ml PFU/ml | PFU (RNA virus R17 [7]; light 0.5 min): 5.0 × 10^9/ml PFU/ml | PFU (RNA virus R17 [7]; light 2.5 min): 9.1 × 10^7/ml PFU/ml | PFU (RNA virus R17 [7]; light 5.0 min): 6.93 × 10^7/ml PFU/ml | PFU (RNA virus R17 [7]; light exposure none): 2.76 × 10^9/ml PFU/ml | pfu/ml (RNA virus R17 [7]; MB 0.2 uM, light 5′ yes): 3.25 × 10^5 pfu/ml | pfu/ml (RNA virus R17 [7]; MB 2.0 uM, light 5′ yes): 3.00 × 10^3 pfu/ml | pfu/ml (RNA virus R17 [7]; MB 2.0 uM, light no): 4.80 × 10^10 pfu/ml | pfu/ml (RNA virus R17 [7]; MB 20.0 uM, light 5′ yes): 4.20 × 10^4 pfu/ml | pfu/ml (RNA virus R17 [7]; MB 20.0 uM, light no): 3.00 × 10^9 pfu/ml | methemoglobin production ([8]; doses as high as 50 mg/kg): minimal methemoglobin production | hematologic changes ([8]; up to four weeks after a total dose of 30 mg/kg): no hematologic changes | overall elimination rate constant [8]: 0.0076 ± 0.016 min⁻¹ | IC50 ([9]; Dark): 105 µM | IC50 ([9]; Light): 125 µM | inactivation of R17 (ability to form plaques) (RNA virus R17 [10]; 0.02 μM methylene blue plus light for 15 min): causes inactivation of R17 | PFU (RNA virus R17 [10]; MB 0.05 uM, light 1.0 min): 1.0 × 10^9/ml PFU/ml
